≈ marks a conversion by molar mass, not a printed value.
How the values were obtained:
Assay type in all cases: functional
[1] = test system: Streptococcus pneumoniae; test: Antibacterial activity against Streptococcus pneumoniae SVI SP-3
[2] = test system: Staphylococcus aureus; test: Antibacterial activity against Staphylococcus aureus UC-76 SA-1
[3] = test system: Enterococcus faecalis; test: Antibacterial activity against Enterococcus faecalis MGH-2 EF1-1
[4] = test system: Moraxella catarrhalis; test: Antibacterial activity against Moraxella catarrhalis BC-3531
[5] = test system: Haemophilus influenzae; test: Antibacterial activity against Haemophilus influenzae HI3542; details: HI-3542
[6] = test system: Staphylococcus aureus; test: In vivo efficacy in mouse infected with Staphylococcus aureus UC 9213 administered po; details: UC 9213, po

MIC [1] [µg/mL]	MIC [2] [µg/mL]	MIC [3] [µg/mL]	MIC [4] [µg/mL]	MIC [5] [µg/mL]	SMILES	ED50 [6] [mg/kg]
1 (≈ 2.34 µM)	2 (≈ 4.69 µM)	2 (≈ 4.69 µM)	4 (≈ 9.38 µM)	8 (≈ 18.8 µM)	O=C(NC[C@H]1CN(c2cc(F)c([C@H]3[C@@H]4CS(=O)(=O)C[C@@H]43)c(F)c2)C(=O)O1)C1CC1	–
2 (≈ 5.98 µM)	4 (≈ 12 µM)	4 (≈ 12 µM)	4 (≈ 12 µM)	8 (≈ 23.9 µM)	CC(=O)NC[C@H]1CN(c2ccc([C@H]3[C@@H]4COC[C@@H]43)c(F)c2)C(=O)O1	–
1 (≈ 2.41 µM)	2 (≈ 4.81 µM)	2 (≈ 4.81 µM)	8 (≈ 19.3 µM)	16 (≈ 38.5 µM)	CC(=O)NC[C@H]1CN(c2ccc([C@H]3[C@@H]4CN(c5nnn(C)n5)C[C@@H]43)c(F)c2)C(=O)O1	–
1 (≈ 2.5 µM)	1 (≈ 2.5 µM)	1 (≈ 2.5 µM)	4 (≈ 9.99 µM)	8 (≈ 20 µM)	CC(=O)NC[C@H]1CN(c2ccc([C@H]3[C@@H]4CN(C(=O)CC#N)C[C@@H]43)c(F)c2)C(=O)O1	–
1 (≈ 2.56 µM)	16 (≈ 41 µM)	4 (≈ 10.2 µM)	16 (≈ 41 µM)	16 (≈ 41 µM)	CC(=O)NC[C@H]1CN(c2ccc([C@H]3[C@@H]4CN(C(=O)CN)C[C@@H]43)c(F)c2)C(=O)O1	–
2 (≈ 6 µM)	8 (≈ 24 µM)	16 (≈ 48 µM)	8 (≈ 24 µM)	32 (≈ 96 µM)	CC(=O)NC[C@H]1CN(c2ccc([C@H]3[C@@H]4CNC[C@@H]43)c(F)c2)C(=O)O1	–
4 (≈ 9.25 µM)	4 (≈ 9.25 µM)	4 (≈ 9.25 µM)	32 (≈ 74 µM)	32 (≈ 74 µM)	CC(=O)NCC(=O)N1C[C@@H]2[C@H](C1)[C@H]2c1ccc(N2C[C@H](CNC(C)=O)OC2=O)cc1F	–
1 (≈ 2.77 µM)	2 (≈ 5.53 µM)	2 (≈ 5.53 µM)	8 (≈ 22.1 µM)	8 (≈ 22.1 µM)	CC(=O)NC[C@H]1CN(c2ccc([C@H]3[C@@H]4CN(C=O)C[C@@H]43)c(F)c2)C(=O)O1	–
1 (≈ 2.22 µM)	4 (≈ 8.88 µM)	2 (≈ 4.44 µM)	8 (≈ 17.8 µM)	16 (≈ 35.5 µM)	CC(F)(F)C(=O)NC[C@H]1CN(c2cc(F)c([C@H]3[C@@H]4CS(=O)(=O)C[C@@H]43)c(F)c2)C(=O)O1	–
2 (≈ 4.89 µM)	4 (≈ 9.77 µM)	4 (≈ 9.77 µM)	8 (≈ 19.5 µM)	16 (≈ 39.1 µM)	CC(=O)NC[C@H]1CN(c2cc(F)c([C@H]3[C@@H]4CN(C(=O)CO)C[C@@H]43)c(F)c2)C(=O)O1	–
1 (≈ 2.43 µM)	4 (≈ 9.72 µM)	2 (≈ 4.86 µM)	8 (≈ 19.4 µM)	16 (≈ 38.9 µM)	CC(=O)NC[C@H]1CN(c2ccc([C@H]3[C@@H]4CN(C(=O)C(F)F)C[C@@H]43)c(F)c2)C(=O)O1	–
2 (≈ 5.11 µM)	4 (≈ 10.2 µM)	4 (≈ 10.2 µM)	8 (≈ 20.4 µM)	32 (≈ 81.8 µM)	COC(=O)N1C[C@@H]2[C@H](C1)[C@H]2c1ccc(N2C[C@H](CNC(C)=O)OC2=O)cc1F	–
1 (≈ 2.59 µM)	2 (≈ 5.18 µM)	2 (≈ 5.18 µM)	8 (≈ 20.7 µM)	16 (≈ 41.4 µM)	CC(=O)NC[C@H]1CN(c2ccc([C@H]3[C@@H]4CN(CCC#N)C[C@@H]43)c(F)c2)C(=O)O1	–
2 (≈ 4.63 µM)	8 (≈ 18.5 µM)	8 (≈ 18.5 µM)	8 (≈ 18.5 µM)	16 (≈ 37 µM)	CC(F)(F)C(=O)NC[C@H]1CN(c2ccc([C@H]3[C@@H]4CS(=O)(=O)C[C@@H]43)c(F)c2)C(=O)O1	–
8 (≈ 25.3 µM)	8 (≈ 25.3 µM)	16 (≈ 50.6 µM)	8 (≈ 25.3 µM)	32 (≈ 101 µM)	CC(=O)NC[C@H]1CN(c2ccc([C@H]3[C@@H]4COC[C@@H]43)cc2)C(=O)O1	–
4 (≈ 10.7 µM)	4 (≈ 10.7 µM)	4 (≈ 10.7 µM)	4 (≈ 10.7 µM)	8 (≈ 21.4 µM)	CC(=O)NC[C@H]1CN(c2ccc([C@H]3[C@@H]4CN(C(=O)CO)C[C@@H]43)cc2)C(=O)O1	–
2 (≈ 4.77 µM)	8 (≈ 19.1 µM)	4 (≈ 9.54 µM)	16 (≈ 38.1 µM)	32 (≈ 76.3 µM)	CC(=O)NC[C@H]1CN(c2ccc([C@H]3[C@@H]4CN(C(=O)C(C)(C)O)C[C@@H]43)c(F)c2)C(=O)O1	–
4 (≈ 9.82 µM)	8 (≈ 19.6 µM)	8 (≈ 19.6 µM)	8 (≈ 19.6 µM)	8 (≈ 19.6 µM)	N#CCC(=O)NC[C@H]1CN(c2ccc([C@H]3[C@@H]4CS(=O)(=O)C[C@@H]43)c(F)c2)C(=O)O1	–
4 (≈ 10.7 µM)	64 (≈ 170 µM)	64 (≈ 170 µM)	16 (≈ 42.6 µM)	64 (≈ 170 µM)	CC(=O)NC[C@H]1CN(c2ccc([C@H]3[C@@H]4CN(C(=N)N)C[C@@H]43)c(F)c2)C(=O)O1	–

MIC [1] [µg/mL]	MIC [2] [µg/mL]	MIC [3] [µg/mL]	MIC [4] [µg/mL]	MIC [5] [µg/mL]	SMILES	ED50 [6] [mg/kg]
2 (≈ 5.23 µM)	4 (≈ 10.5 µM)	4 (≈ 10.5 µM)	8 (≈ 20.9 µM)	8 (≈ 20.9 µM)	CC(=O)NC[C@H]1CN(c2ccc([C@H]3[C@@H]4CS(=O)(=O)C[C@@H]43)c(F)c2)C(=O)O1	4.2
1 (≈ 2.5 µM)	1 (≈ 2.5 µM)	2 (≈ 4.99 µM)	8 (≈ 20 µM)	8 (≈ 20 µM)	CC(=O)NC[C@H]1CN(c2ccc([C@H]3[C@@H]4CN(C(=N)NC#N)C[C@@H]43)c(F)c2)C(=O)O1	–
2 (≈ 4.73 µM)	8 (≈ 18.9 µM)	8 (≈ 18.9 µM)	32 (≈ 75.7 µM)	32 (≈ 75.7 µM)	O=C(NC[C@H]1CN(c2ccc([C@H]3[C@@H]4CS(=O)(=O)C[C@@H]43)c(F)c2)C(=O)O1)C1CCC1	–
2 (≈ 5.31 µM)	2 (≈ 5.31 µM)	2 (≈ 5.31 µM)	8 (≈ 21.3 µM)	8 (≈ 21.3 µM)	CC(=O)NC[C@H]1CN(c2ccc([C@H]3[C@@H]4CN(C(N)=O)C[C@@H]43)c(F)c2)C(=O)O1	15.3
4 (≈ 10 µM)	8 (≈ 20.1 µM)	8 (≈ 20.1 µM)	8 (≈ 20.1 µM)	8 (≈ 20.1 µM)	O=C(CO)NC[C@H]1CN(c2ccc([C@H]3[C@@H]4CS(=O)(=O)C[C@@H]43)c(F)c2)C(=O)O1	–
4 (≈ 11 µM)	4 (≈ 11 µM)	8 (≈ 22 µM)	8 (≈ 22 µM)	16 (≈ 43.9 µM)	CC(=O)NC[C@H]1CN(c2ccc([C@H]3[C@@H]4CS(=O)(=O)C[C@@H]43)cc2)C(=O)O1	7.2
2 (≈ 4.8 µM)	4 (≈ 9.61 µM)	4 (≈ 9.61 µM)	8 (≈ 19.2 µM)	8 (≈ 19.2 µM)	O=C(CO)NC[C@H]1CN(c2cc(F)c([C@H]3[C@@H]4CS(=O)(=O)C[C@@H]43)c(F)c2)C(=O)O1	–
2 (≈ 5.11 µM)	2 (≈ 5.11 µM)	2 (≈ 5.11 µM)	8 (≈ 20.4 µM)	4 (≈ 10.2 µM)	CC(=O)NC[C@H]1CN(c2ccc([C@H]3[C@@H]4CN(C(=O)CO)C[C@@H]43)c(F)c2)C(=O)O1	2.2
2 (≈ 4.83 µM)	4 (≈ 9.65 µM)	4 (≈ 9.65 µM)	32 (≈ 77.2 µM)	16 (≈ 38.6 µM)	C/N=C(\NC#N)N1C[C@@H]2[C@H](C1)[C@H]2c1ccc(N2C[C@H](CNC(C)=O)OC2=O)cc1F	–
1 (≈ 2.5 µM)	2 (≈ 4.99 µM)	2 (≈ 4.99 µM)	4 (≈ 9.99 µM)	8 (≈ 20 µM)	CC(=O)NC[C@H]1CN(c2cc(F)c([C@H]3[C@@H]4CS(=O)(=O)C[C@@H]43)c(F)c2)C(=O)O1	3.1
1 (≈ 2.41 µM)	2 (≈ 4.83 µM)	2 (≈ 4.83 µM)	4 (≈ 9.65 µM)	4 (≈ 9.65 µM)	CCC(=O)NC[C@H]1CN(c2cc(F)c([C@H]3[C@@H]4CS(=O)(=O)C[C@@H]43)c(F)c2)C(=O)O1	–
4 (≈ 11.4 µM)	8 (≈ 22.7 µM)	8 (≈ 22.7 µM)	8 (≈ 22.7 µM)	32 (≈ 90.8 µM)	CC(=O)NC[C@H]1CN(c2cc(F)c([C@H]3[C@@H]4COC[C@@H]43)c(F)c2)C(=O)O1	–
2 (≈ 4.7 µM)	4 (≈ 9.4 µM)	4 (≈ 9.4 µM)	8 (≈ 18.8 µM)	4 (≈ 9.4 µM)	N#CCC(=O)NC[C@H]1CN(c2cc(F)c([C@H]3[C@@H]4CS(=O)(=O)C[C@@H]43)c(F)c2)C(=O)O1	–
1 (≈ 2.79 µM)	2 (≈ 5.58 µM)	1 (≈ 2.79 µM)	4 (≈ 11.2 µM)	8 (≈ 22.3 µM)	CC(=O)NC[C@H]1CN(c2ccc([C@H]3[C@@H]4CN(C#N)C[C@@H]43)c(F)c2)C(=O)O1	–
0.5 (≈ 1.32 µM)	4 (≈ 10.6 µM)	8 (≈ 21.2 µM)	8 (≈ 21.2 µM)	8 (≈ 21.2 µM)	CC(=O)NC[C@H]1CN(c2ccc([C@H]3[C@@H]4CN(CCO)C[C@@H]43)c(F)c2)C(=O)O1	–
1 (≈ 2.52 µM)	4 (≈ 10.1 µM)	2 (≈ 5.04 µM)	8 (≈ 20.2 µM)	8 (≈ 20.2 µM)	CCC(=O)NC[C@H]1CN(c2ccc([C@H]3[C@@H]4CS(=O)(=O)C[C@@H]43)c(F)c2)C(=O)O1	–
2 (≈ 4.9 µM)	4 (≈ 9.79 µM)	4 (≈ 9.79 µM)	4 (≈ 9.79 µM)	4 (≈ 9.79 µM)	O=C(NC[C@H]1CN(c2ccc([C@H]3[C@@H]4CS(=O)(=O)C[C@@H]43)c(F)c2)C(=O)O1)C1CC1	–
64 (≈ 159 µM)	64 (≈ 159 µM)	32 (≈ 79.7 µM)	64 (≈ 159 µM)	64 (≈ 159 µM)	CC(=O)NC[C@H]1CN(c2ccc([C@H]3[C@@H]4CN(c5nn[nH]n5)C[C@@H]43)c(F)c2)C(=O)O1	–
1 (≈ 2.64 µM)	4 (≈ 10.5 µM)	4 (≈ 10.5 µM)	8 (≈ 21.1 µM)	16 (≈ 42.2 µM)	CC(=O)NC[C@H]1CN(c2ccc([C@H]3[C@@H]4CN(CCF)C[C@@H]43)c(F)c2)C(=O)O1	–

SMILES	MIC [1] [µg/mL]	MIC [2] [µg/mL]	MIC [3] [µg/mL]	MIC [4] [µg/mL]	MIC [5] [µg/mL]	ED50 [6] [mg/kg]
CC(=O)NC[C@H]1CN(c2ccc(N3CCOCC3)c(F)c2)C(=O)O1 [LINEZOLID]	–	–	–	8 (≈ 23.7 µM)	16 (≈ 47.4 µM)	–

Source: ChEMBL document CHEMBL1138148, “Conformational constraint in oxazolidinone antibacterials. Part 2: Synthesis and structure-activity studies of oxa-, aza-, and thiabicyclo[3.1.0]hexylphenyl oxazolidinones” (2006)
